In patent US12122761B2, “2-azaspiro[3.4]octane derivatives as M4 agonists” (NOVARTIS AG, priority 2019, dated 2024):

Key:
[1] = molecular target: T1, Cloned human M1 receptor (CHRM1) stably expressed in HEK293 cells (Homo sapiens, UniProt P11229); assay: CHRM1 Ca++ Flux Assay (agonist mode, FDSS 7000EX); assay type: cell-based; settings: for Emax: HEK293, Percent Activity, read-out: M1 FDSS PA; for EC50: geometric mean if tested more than once
T1 construct: expressed in transfected cells; host or cells: HEK293
T1 sequence (P11229 1-460): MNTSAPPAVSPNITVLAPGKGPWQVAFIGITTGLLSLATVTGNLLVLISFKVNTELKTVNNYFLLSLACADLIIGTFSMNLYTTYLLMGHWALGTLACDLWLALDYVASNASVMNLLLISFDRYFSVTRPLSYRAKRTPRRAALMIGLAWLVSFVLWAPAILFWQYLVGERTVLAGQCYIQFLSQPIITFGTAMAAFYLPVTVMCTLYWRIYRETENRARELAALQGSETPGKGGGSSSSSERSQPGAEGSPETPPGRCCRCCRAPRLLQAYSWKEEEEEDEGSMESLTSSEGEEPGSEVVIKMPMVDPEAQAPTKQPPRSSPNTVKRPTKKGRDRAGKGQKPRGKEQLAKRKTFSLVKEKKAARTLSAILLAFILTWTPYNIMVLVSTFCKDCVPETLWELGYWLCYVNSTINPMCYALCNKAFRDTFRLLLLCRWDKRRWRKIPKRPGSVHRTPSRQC
In short: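 Compounds tested as agonists at 11 concentrations in triplicate, with calcium traces captured over 3 minutes. Cells were HEK293 with stable human CHRM1 expression, plated overnight at 25K/well and loaded with calcium dye. Responses normalized to carbachol EC100 and fitted by four-parameter nonlinear regression.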

[2] = molecular target: T2, human cloned CHRM5 receptor (M5_CHO) (Homo sapiens, UniProt P08912); assay: CHRM5 Ca++ Flux Assay (agonist mode, FDSS 7000EX); assay type: cell-based; settings: for Emax: Percent Activity measured to EC100 of Carbachol, read-out: M5 FDSS PA; for EC50: agonist mode, geometric mean if tested more than once, read-out: M5 FDSS EC50
T2 construct: expressed in transfected cells; host or cells: CHO (M5_CHO)
T2 sequence (P08912 1-532): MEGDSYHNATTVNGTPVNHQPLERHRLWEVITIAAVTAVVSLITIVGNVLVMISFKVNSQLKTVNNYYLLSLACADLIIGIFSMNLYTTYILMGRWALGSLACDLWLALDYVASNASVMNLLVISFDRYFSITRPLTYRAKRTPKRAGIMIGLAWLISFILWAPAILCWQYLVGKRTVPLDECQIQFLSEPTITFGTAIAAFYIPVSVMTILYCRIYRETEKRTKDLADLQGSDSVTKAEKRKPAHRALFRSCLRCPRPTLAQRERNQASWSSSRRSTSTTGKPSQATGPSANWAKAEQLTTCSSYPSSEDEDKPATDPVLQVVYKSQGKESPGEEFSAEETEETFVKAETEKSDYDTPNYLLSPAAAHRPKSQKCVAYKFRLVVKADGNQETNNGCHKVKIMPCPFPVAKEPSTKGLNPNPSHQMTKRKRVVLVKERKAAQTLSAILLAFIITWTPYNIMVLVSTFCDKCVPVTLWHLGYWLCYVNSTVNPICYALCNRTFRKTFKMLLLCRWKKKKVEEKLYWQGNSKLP
In short: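 Stable CHO-K1 lines (human M3 or M5), calcium-dye loaded ≥1 h, assayed in Ca/Mg-free HBSS + 20 mM HEPES + 2.5 mM probenecid. 11-pt dose response, triplicate, 3 min fluorescence read. 4-parameter regression; % activity vs carbachol EC100.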

| SMILES | Emax [1] | EC50 [1] | Emax [2] | EC50 [2] |
| --- | --- | --- | --- | --- |
| O=C(C1COC1)N1CC2(CC[C@@H](N3CCC(c4ccccc4OCCOC4COC4)CC3)C2)C1 [Example 7EE, (R)-oxetan-3-yl(6-(4-(2-(2-(oxetan-3-yloxy)ethoxy)phenyl)piperidin-1-yl)-2-azaspiro[3.4]octan-2-yl)methanone] | 98% | 73 nM | 0% | > 25000 nM |
| CC(C)COc1ccccc1C1CCN([C@@H]2CCC3(C2)CN(C(=O)C2COC2)C3)CC1 [Example 7F, (R)-(6-(4-(2-isobutoxyphenyl)piperidin-1-yl)-2-azaspiro[3.4]octan-2-yl)(oxetan-3-yl)methanone] | 75% | 42 nM | 0% | > 25000 nM |
| O=C(C1COC1)N1CC2(CC[C@@H](N3CCC(c4ccccc4OC4CCCC4)CC3)C2)C1 [Example 7G, (R)-(6-(4-(2-(cyclopentyloxy)phenyl)piperidin-1-yl)-2-azaspiro[3.4]octan-2-yl)(oxetan-3-yl)methanone] | 65% | 37 nM | 0% | > 25000 nM |
| O=C(C1COC1)N1CC2(CC[C@@H](N3CCC(c4ccccc4OCCC(F)(F)F)CC3)C2)C1 [Example 7GG, (R)-oxetan-3-yl(6-(4-(2-(3,3,3-trifluoropropoxy)phenyl)piperidin-1-yl)-2-azaspiro[3.4]octan-2-yl)methanone] | 91% | 39 nM | 14% | 974 nM |
| O=C(C1COC1)N1CC2(CC[C@@H](N3CCC(c4ccccc4OC4CCC4)CC3)C2)C1 [Example 7H, (R)-(6-(4-(2-cyclobutoxyphenyl)piperidin-1-yl)-2-azaspiro[3.4]octan-2-yl)(oxetan-3-yl)methanone] | 71% | 9 nM | 0% | > 25000 nM |
| COC(C)(C)COc1ccccc1C1CCN([C@@H]2CCC3(C2)CN(C(=O)C2COC2)C3)CC1 [Example 7HH, (R)-(6-(4-(2-(2-methoxy-2-methylpropoxy)phenyl)piperidin-1-yl)-2-azaspiro[3.4]octan-2-yl)(oxetan-3-yl)methanone] | 82% | 159 nM | 0% | > 25000 nM |
| O=C(C1COC1)N1CC2(CC[C@@H](N3CCC(c4ccccc4OCC4CC4)CC3)C2)C1 [Example 7I, (R)-(6-(4-(2-(cyclopropylmethoxy)phenyl)piperidin-1-yl)-2-azaspiro[3.4]octan-2-yl)(oxetan-3-yl)methanone] | 86% | 15 nM | 0% | > 25000 nM |
| O=C(C1COC1)N1CC2(CC[C@@H](N3CCC(c4ccccc4OCC4(C(F)(F)F)CC4)CC3)C2)C1 [Example 7II, (R)-oxetan-3-yl(6-(4-(2-((1-(trifluoromethyl)cyclopropyl)methoxy)phenyl)piperidin-1-yl)-2-azaspiro[3.4]octan-2-yl)methanone] | 89% | 103 nM | 13% | 1640 nM |
| O=C(C1COC1)N1CC2(CC[C@@H](N3CCC(c4ccccc4OCC(F)F)CC3)C2)C1 [Example 7JJ, (R)-(6-(4-(2-(2,2-difluoroethoxy)phenyl)piperidin-1-yl)-2-azaspiro[3.4]octan-2-yl)(oxetan-3-yl)methanone] | 87% | 12 nM | 9% | 935 nM |

Now from value to compound:

| Emax [1] | EC50 [1] | Emax [2] | EC50 [2] | SMILES |
| --- | --- | --- | --- | --- |
| 72% | 24 nM | 0% | > 25000 nM | CC(C)Oc1ccccc1C1CCN([C@@H]2CCC3(C2)CN(C(=O)C2COC2)C3)CC1 [Example 7K, (R)-(6-(4-(2-isopropoxyphenyl)piperidin-1-yl)-2-azaspiro[3.4]octan-2-yl)(oxetan-3-yl)methanone] |
| 80% | 11 nM | 0% | > 25000 nM | O=C(C1COC1)N1CC2(CC[C@@H](N3CCC(c4ccccc4OCCC4COC4)CC3)C2)C1 [Example 7KK, (R)-oxetan-3-yl(6-(4-(2-(2-(oxetan-3-yl)ethoxy)phenyl)piperidin-1-yl)-2-azaspiro[3.4]octan-2-yl)methanone] |
| 85% | 324 nM | 0% | > 25000 nM | CC(C)(O)COc1ccccc1C1CCN([C@@H]2CCC3(C2)CN(C(=O)C2COC2)C3)CC1 [Example 7L, (R)-(6-(4-(2-(2-hydroxy-2-methylpropoxy)phenyl)piperidin-1-yl)-2-azaspiro[3.4]octan-2-yl)(oxetan-3-yl)methanone] |
| 79% | 8 nM | 0% | > 25000 nM | O=C(C1COC1)N1CC2(CC[C@@H](N3CCC(c4ccccc4OC(F)(F)F)CC3)C2)C1 [Example 12A, (R)-oxetan-3-yl(6-(4-(2-(trifluoromethoxy)phenyl)piperidin-1-yl)-2-azaspiro[3.4]octan-2-yl)methanone] |
